We go through 28 molecules from ChEMBL document CHEMBL1126573, “Non-peptide angiotensin II receptor antagonists. 1. Design, synthesis, and biological activity of N-substituted indoles and dihydroindoles” (J Med Chem, 1993).

Assay [1] concerns the target T1, Type-2 angiotensin II receptor (Rattus norvegicus, UniProt P35351).
T1 sequence (P35351 whole entry): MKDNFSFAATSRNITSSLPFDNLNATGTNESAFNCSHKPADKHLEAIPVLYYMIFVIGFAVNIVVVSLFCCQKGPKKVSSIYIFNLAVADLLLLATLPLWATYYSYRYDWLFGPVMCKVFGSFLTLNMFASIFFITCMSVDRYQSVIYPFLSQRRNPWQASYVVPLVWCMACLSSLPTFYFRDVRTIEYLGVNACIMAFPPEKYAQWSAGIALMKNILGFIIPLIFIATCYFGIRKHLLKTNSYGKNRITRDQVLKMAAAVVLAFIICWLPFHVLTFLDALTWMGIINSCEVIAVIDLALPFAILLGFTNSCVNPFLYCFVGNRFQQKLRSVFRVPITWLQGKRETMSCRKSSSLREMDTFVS
The assay can be described thus: In vitro antagonist activity against angiotensin II receptor type 2 in rat midbrain using [125I]-Sar,Ile AII. It is filed as functional.

Assay [2] deals with T2, Type-1 angiotensin II receptor (Oryctolagus cuniculus, UniProt P34976).
T2 sequence (P34976 whole entry): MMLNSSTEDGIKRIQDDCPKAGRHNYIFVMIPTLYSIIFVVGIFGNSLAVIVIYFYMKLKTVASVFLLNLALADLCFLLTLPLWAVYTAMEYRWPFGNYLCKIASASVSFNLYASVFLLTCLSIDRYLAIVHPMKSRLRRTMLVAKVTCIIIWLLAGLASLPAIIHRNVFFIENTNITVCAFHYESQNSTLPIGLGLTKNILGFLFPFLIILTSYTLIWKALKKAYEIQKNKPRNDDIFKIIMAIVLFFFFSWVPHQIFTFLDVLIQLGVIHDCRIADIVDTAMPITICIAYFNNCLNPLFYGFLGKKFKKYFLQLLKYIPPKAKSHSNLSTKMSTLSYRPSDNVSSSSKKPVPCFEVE
The assay can be described thus: In vitro antagonist activity against angiotensin II receptor type 1 in rabbit aorta using [125I]-Sar, Ile AII. It is filed as functional, tissue-based.

Regarding `CCc1nc2c(C)cc(C)nc2n1Cc1ccc2c(ccn2Cc2cccc([N+](=O)[O-])c2C(=O)O)c1`, the concentration for half-maximal inhibition (IC50) (usually the point on the concentration scale where inhibition reaches its midpoint) in assay [1] turned out to be 14000 nM; in assay [2], 160 nM.
The like results for `CCc1nc2c(C)cc(C)nc2n1Cc1ccc2c(ccn2C(=O)c2ccccc2NC(=O)O)c1` were, in that order, 17000 nM and 92 nM.
Taken in the same sequence, the figures for `CCc1nc2c(C)cc(C)nc2n1Cc1ccc2c(ccn2C(=O)c2ccccc2C(=O)O)c1` were 6600 nM and 20 nM.
Consider `CCc1nc2c(C)cc(C)nc2n1Cc1ccc2c(ccn2Cc2ccccc2C(=O)O)c1`, for which, in assay [1], the IC50 was > 30000 nM.
Regarding `CCc1nc2c(C)cc(C)nc2n1Cc1ccc2c(ccn2Cc2ccccc2C#N)c1`, the IC50 is > 30000 nM in assay [1] and 320 nM in assay [2].
The like results for `CCc1nc2c(C)cc(C)nc2n1Cc1ccc2c(c1)CCN2C(=O)c1cc(Cl)c(Cl)cc1C(=O)O` were, in that order, 1000 nM and 170 nM.
For the molecule `CCc1nc2c(C)cc(C)nc2n1Cc1ccc2c(c1)CCN2C(c1ccccc1)c1nnn[nH]1` (stereo unspecified), the IC50 in assay [1] is > 30000 nM.
Consider `CCc1nc2c(C)cc(C)nc2n1Cc1ccc2c(ccn2Cc2ccccc2C(=O)OC)c1`, for which the values for the IC50 in assay [1] and in assay [2] were 21000 nM and 620 nM, respectively.
The like results for `CCc1nc2c(C)cc(C)nc2n1Cc1ccc2c(ccn2C(=O)c2cc(Cl)c(Cl)cc2C(=O)O)c1` were, in that order, 1900 nM and 15 nM.
For `CCc1nc2c(C)cc(C)nc2n1Cc1ccc2c(c1)CCN2C(=O)c1c(Cl)ccc(Cl)c1C(=O)O`, the results for the IC50 in assay [1] and in assay [2] were 6500 nM and 18 nM, respectively.
`CCc1nc2c(C)cc(C)nc2n1Cc1ccc2c(c1)CCN2C(C#N)c1ccc(C)cc1` (stereo unspecified): the midpoint of inhibition in assay [1], the IC50, lay at 14000 nM.
With `CCc1nc2c(C)cc(C)nc2n1Cc1ccc2c(c1)CCN2C(C#N)c1ccccc1C` (stereo unspecified), the figures for the 50% inhibitory concentration (IC50) in assay [1] and in assay [2] were 13000 nM and 1100 nM, respectively.
Regarding `CCc1nc2c(C)cc(C)nc2n1Cc1ccc(-c2ccccc2-c2nnn[nH]2)cc1` [L-158809], the IC50 in assay [1] was > 10000 nM.
On the same count and under the same terms, next, `CCc1nc2c(C)cc(C)nc2n1Cc1ccc2c(ccn2Cc2ccccc2NC(=O)OC)c1`: > 30000 nM.
Regarding `CCc1nc2c(C)cc(C)nc2n1Cc1ccc2c(c1)CCN2C(C(=O)OC)c1ccccc1` (stereo unspecified), the figures for the IC50 in assay [1] and in assay [2] were 16000 nM and 170 nM, respectively.
The like results for `CCc1nc2c(C)cc(C)nc2n1Cc1ccc2c(c1)CCN2C(C(=O)O)c1ccccc1` (stereo unspecified) were, in that order, 14000 nM and 82 nM.
`CCc1nc2c(C)cc(C)nc2n1Cc1ccc2c(ccn2C(=O)c2ccccc2-c2nnn[nH]2)c1`: the results for the IC50 in assay [1] and in assay [2] were 130 nM and 5 nM, respectively.
The like results for `CCc1nc2c(C)cc(C)nc2n1Cc1ccc2c(ccn2Cc2c(Cl)cccc2C#N)c1` were, in that order, > 30000 nM and 120 nM.
Regarding `CCc1nc2c(C)cc(C)nc2n1Cc1ccc2c(ccn2C(=O)c2ccccc2)c1`, the IC50 in assay [1] was 8900 nM; in assay [2], 240 nM.
Taken in the same sequence, the figures for `CCc1nc2c(C)cc(C)nc2n1Cc1ccc2c(ccn2C(=O)c2c(Cl)ccc(Cl)c2C(=O)O)c1` were 2700 nM and 0.8 nM.
Taken in the same sequence, the figures for `CCc1nc2c(C)cc(C)nc2n1Cc1ccc2c(ccn2Cc2c(Cl)cccc2-c2nnn[nH]2)c1` were 12000 nM and 1 nM.
The like results for `CCc1nc2c(C)cc(C)nc2n1Cc1ccc2c(c1)CCN2C(=O)c1ccccc1C#N` were, in that order, 25000 nM and 670 nM.
Consider `CCc1nc2c(C)cc(C)nc2n1Cc1ccc2c(ccn2Cc2ccccc2-c2nn[nH]n2)c1`, for which the IC50 in assay [1] is > 18000 nM; in assay [2], 8.7 nM.
The like results for `CCc1nc2c(C)cc(C)nc2n1Cc1ccc2c(c1)CCN2C(C#N)c1ccccc1` (stereo unspecified) were, in that order, 11500 nM and 350 nM.
Taken in the same sequence, the figures for `CCc1nc2c(C)cc(C)nc2n1Cc1ccc2c(c1)CCN2C(=O)c1ccccc1C(=O)O` were 10000 nM and 48 nM.
Taken in the same sequence, the figures for `CCc1nc2c(C)cc(C)nc2n1Cc1ccc2c(c1)CCN2C(=O)c1ccccc1-c1nnn[nH]1` were > 10000 nM and 780 nM.
For `CCc1nc2c(C)cc(C)nc2n1Cc1ccc2c(c1)CCN2C(C#N)c1cccc(C)c1` (stereo unspecified), the IC50 in assay [1] came out at 10500 nM; in assay [2], 1600 nM.
Taken in the same sequence, the figures for `CCc1nc2c(C)cc(C)nc2n1Cc1ccc2c(ccn2C(=O)c2ccccc2C#N)c1` were > 50000 nM and 250 nM.
